The test system of experiment [1] is cat fleas (Ctenocephalides felis). Description: Adult fleas fed on artificial membranes with spiked blood (Example 1). Particulars: 48 hr continuous feeding. As to the method:
Adult fleas (20-30) were fed on artificial membranes with blood spiked with Compound 10-1, Compound 11-1, or a positive control (fipronil) at a concentration of 100, 10, or 1 ppm. Flea efficacy was assessed after 48 hr of continuous feeding by comparing the number of killed and damaged fleas with the number of fed fleas. Flea efficacy was 100% for Compound 10-1, Compound 11-1, and fipronil at 100, 10, and 1 ppm.

Experiment [2] has the same test system. Put plainly: Efficacy of various isoxazolines against cat fleas on mice (Example 3). The experiment is classed as in vivo. The conditions noted are these: Ctenocephalides felis, po, read-out: Flea inhibition relative to negative control. How it is done:
In this experiment, mice were randomly assigned to a treatment group or a negative control (untreated) group. Each group consisted of three mice. The mice in the treatment groups were orally administered 20 mg/kg bodyweight of various isoxazolines dissolved in 7% DMF-premix and 93% purified water (aqua ad injectabilia). The application volume of these treatments was 0.01 mL/g bodyweight. One hour after treatment, each mouse was sedated and generally infested (whole body) with 30 vital, adult fleas (C. felis). To achieve this, the sedated mice were placed into an infestation-jar, and the fleas were placed directly onto the fur. After approximately 30 minutes of feeding, fleas were recovered from the mice. Assessments for inhibition and mortality were conducted 1 hr, 24 hr, and 48 hr after each infestation. The efficacy was calculated as the percentage of inhibited fleas in the treatment groups relative to the negative control group.

The subject of experiment [3] is brown dog ticks (Rhipicephalus sanguineus) nymphs. Put plainly: Efficacy of various isoxazolines against brown dog ticks on Guinea pigs (Example 4). The experiment is classed as in vivo. Particulars: po. How it is done:
In this experiment, Guinea pigs were randomly assigned to a treatment group or a negative control (untreated) group. Each group consisted of three Guinea pigs. On Day Zero, each Guinea pig was infested with 100 vital nymphs of R. sanguineus. On Day 1, the Guinea pigs in the treatment groups were orally administered 10 mg/kg bodyweight of various isoxazolines dissolved in 7% DMF-premix and 93% purified water (aqua ad injectabilia). Engorged, detached nymphs were counted (eN) from Day 4 to […] on engorged nymphs (%) (eN control group—EeN treatment group)×100 eN control group
In addition, collected ticks were assessed for molting into the next stage.

[4] abbreviates: 1 h, mice, oral 20 mg/kg, infested 1 hr after treatment, 1 hr after infestation.
Setting [5] is: 24 h, mice, oral 20 mg/kg, infested 1 hr after treatment, 24 hr after infestation.
Setting [6] is: 48 h, mice, oral 20 mg/kg, infested 1 hr after treatment, 48 hr after infestation.
Setting [7] is: Guinea pigs, oral 10 mg/kg on Day 1, infested Day Zero, engorged detached nymphs counted from Day 4, read-out: Inhibition (efficacy on engorged nymphs).

Read-outs that look alike come from different tables or passages of the source.

Consider `CO/N=C\NC(=O)c1ccc(C2=NOC(c3cc(Cl)cc(Cl)c3)(C(F)(F)F)C2)cc1C` (centres unmarked) [Compound 10-1, (Z)-4-[5-(3,5-dichlorophenyl)-5-trifluoromethyl-4,5-dihydroisoxazol-3-yl]-N-[(methoxyimino)methyl]-2-methylbenzamide], for which the Flea efficacy in experiment [1] (blood spiked at 1 ppm), in experiment [1] (blood spiked at 10 ppm) and in experiment [1] (blood spiked at 100 ppm) was 100% throughout.
Turning to `COCN(C(=O)OC)C(=O)c1ccc(C2=NOC(c3cc(Cl)cc(Cl)c3)(C(F)(F)F)C2)cc1C` (centres unmarked) [Compound 5-63], the pest or weed control at 20 mg/kg in experiment [2] (setting [4]) is 30%; in experiment [2] (setting [5]), 95.6%; in experiment [2] (setting [6]), 98.9%. In addition, the pest or weed control at 10 mg/kg in experiment [3] (setting [7]) came to 85.3%.
`Cc1cc(C2=NOC(c3cc(Cl)cc(Cl)c3)(C(F)(F)F)C2)ccc1C(=O)NCc1cscn1` (centres unmarked) [Compound 5-66]: the pest or weed control at 20 mg/kg in experiment [2] (setting [4]) amounted to 77.8%; in experiment [2] (setting [5]), 100%; in experiment [2] (setting [6]) it was 100%. Besides, the pest or weed control at 10 mg/kg in experiment [3] (setting [7]) came out at 100%.
For `COCN(C(=O)c1ccc(C2=NOC(c3cc(Cl)cc(Cl)c3)(C(F)(F)F)C2)cc1C)c1ncc(C#N)cn1` (centres unmarked) [Compound 5-46], the pest or weed control at 20 mg/kg was determined as 0% in experiment [2] (setting [4]), 85.6% in experiment [2] (setting [5]) and 86.7% in experiment [2] (setting [6]). The pest or weed control at 10 mg/kg in experiment [3] (setting [7]) came to 26.4%.
For the compound `CCON=CNC(=O)c1ccc(C2=NOC(c3cc(Cl)cc(Cl)c3)(C(F)(F)F)C2)cc1I` (centres unmarked) [Compound 5-44], the pest or weed control at 20 mg/kg in experiment [2] (setting [4]) turned out to be 0%; in experiment [2] (setting [5]), 75.6%; in experiment [2] (setting [6]) it was 78.9%. Also, in experiment [3] (setting [7]), the pest or weed control at 10 mg/kg is 15.6%.
With `COC(=O)N(C(=O)c1ccc(C2=NOC(c3cc(Cl)cc(Cl)c3)(C(F)(F)F)C2)cc1C)N(C)c1ccccc1` (centres unmarked) [Compound 5-47], the pest or weed control at 20 mg/kg in experiment [2] (setting [4]) came to 0%; in experiment [2] (setting [5]), 95.6%; in experiment [2] (setting [6]) it was 96.7%. Also, the pest or weed control at 10 mg/kg in experiment [3] (setting [7]) is 58.5%.
Turning to `CO/N=C\NC(=O)c1ccc(C2=NOC(c3cc(Cl)cc(Cl)c3)(C(F)(F)F)C2)cc1I` (centres unmarked) [Compound 5-62], the pest or weed control at 20 mg/kg in experiment [2] (setting [4]) was 10%; in experiment [2] (setting [5]), 81.1%; in experiment [2] (setting [6]) it was 81.1%. The pest or weed control at 10 mg/kg in experiment [3] (setting [7]) was 88.5%.
Turning to `CO/N=C\NC(=O)c1ccc(C2=NOC(c3cc(Cl)cc(Cl)c3)(C(F)(F)F)C2)cc1C` (centres unmarked) [Compound 5-43], the pest or weed control at 20 mg/kg in experiment [2] (setting [5]) and in experiment [2] (setting [6]) was 92.2% in each case. Further, the pest or weed control at 10 mg/kg in experiment [3] (setting [7]) was determined as 0%.
`COC(=O)NC(=O)c1ccc(C2=NOC(c3cc(Br)cc(Br)c3)(C(F)(F)F)C2)cc1C` (centres unmarked) [Compound 5-14]: the pest or weed control at 20 mg/kg was determined as 4.4% in experiment [2] (1 h), 13.3% in experiment [2] (24 h) and 22.2% in experiment [2] (48 h). The pest or weed control at 10 mg/kg in experiment [3] (read-out: Inhibition (efficacy on engorged nymphs)) is 22.4%.
`CCOCN(C(=O)OC)C(=O)c1ccc(C2=NOC(c3cc(Cl)cc(Cl)c3)(C(F)(F)F)C2)cc1I` (centres unmarked) [Compound 5-56]: the pest or weed control at 20 mg/kg in experiment [2] (setting [4]) is 0%; in experiment [2] (setting [5]), 87.8%; in experiment [2] (setting [6]), 88.9%. The pest or weed control at 10 mg/kg in experiment [3] (setting [7]) came out at 76%.
For the compound `CC(=O)N(C(=O)c1ccc(C2=NOC(c3cc(Cl)cc(Cl)c3)(C(F)(F)F)C2)cc1C)c1ncc(Cl)cn1` (centres unmarked) [Compound 5-60], the pest or weed control at 20 mg/kg in experiment [2] (setting [4]) worked out at 26.6%; in experiment [2] (setting [5]), 96.7%; in experiment [2] (setting [6]), 96.7%. In addition, the pest or weed control at 10 mg/kg in experiment [3] (setting [7]) came out at 78.9%.
`CCC(=O)N(Cc1cscn1)C(=O)c1ccc(C2=NOC(c3cc(Cl)cc(Cl)c3)(C(F)(F)F)C2)cc1C` (centres unmarked) [Compound 5-58]: the pest or weed control at 20 mg/kg in experiment [2] (setting [4]) was found to be 11.1%; in experiment [2] (setting [5]), 100%; in experiment [2] (setting [6]), 100%. Moreover, in experiment [3] (setting [7]), the pest or weed control at 10 mg/kg was found to be 100%.
Regarding `NC(=O)NC(=O)c1ccc(C2=NOC(c3cc(Cl)cc(Cl)c3)(C(F)(F)F)C2)cc1I` (centres unmarked) [Compound 5-59], the pest or weed control at 20 mg/kg in experiment [2] (setting [4]) stood at 18.8%; in experiment [2] (setting [5]), 94.4%; in experiment [2] (setting [6]) it was 95.6%. The pest or weed control at 10 mg/kg in experiment [3] (setting [7]) was 96.3%.
